Experiment: Stability of glimepiride in solution as function of pH, Test Example 5
Assay type: physicochemical
Design: Rate constant (K): unit not given beside the values
Settings: for Log K / Rate constant (K) / T50% (time taken for 50% disintegration of the drug, 0.693/K): room temperature
Description: In order to examine the stability of glimepiride in a solution as function of pH changes, only the glimepiride rapid-release portion of the formulation of Example 13 was separated, and dissolved in each of the solutions listed in Table 17. Each of the resulting solutions was kept at room temperature and the glimepiride contents thereof were measured at predetermined times.

[1] = pH 1.2, 1st solution of disintegrating-test in Korea pharmacopoeia
[2] = pH 4.0, British pharmacopoeia buffer solution (1998)
[3] = pH 6.8, 2nd solution of disintegrating-test in Korea pharmacopoeia
[4] = pH 7.8, phosphate buffer solution (Amaryl release solution)

- Log K [1]: 0.186
- Rate constant (K) [1]: 1.534
- T50% (time taken for 50% disintegration of the drug, 0.693/K) [1]: 0.45
- Log K [2]: −0.472
- Rate constant (K) [2]: 0.337
- T50% (time taken for 50% disintegration of the drug, 0.693/K) [2]: 2.06
- Log K [3]: −0.900
- Rate constant (K) [3]: 0.126
- T50% (time taken for 50% disintegration of the drug, 0.693/K) [3]: 5.50
- Log K [4]: −1.187
- Rate constant (K) [4]: 0.065
- T50% (time taken for 50% disintegration of the drug, 0.693/K) [4]: 10.66
- Log K (pH 10.0, Meglumin 1% solution): −2.721
- Rate constant (K) (pH 10.0, Meglumin 1% solution): 0.002
- T50% (time taken for 50% disintegration of the drug, 0.693/K) (pH 10.0, Meglumin 1% solution): 346.50
- stability of glimepiride as function of the solution pH (solution containing meglumin, judged by lowest K value, FIG. 9): most stable
Structure (SMILES): CCC1=C(C)CN(C(=O)NCCc2ccc(S(=O)(=O)NC(=O)N[C@H]3CC[C@H](C)CC3)cc2)C1=O [glimepiride]
